Values of other authors, collected in US20190022229A1, “CANNABINOID/TERPENE ENRICHED CAPRYLIC ACID” (priority 2017, published 2019).

Details: over an eight-hour period; compared with capric acid (C10) alone; from Vandenberghe et al. 2016

**Q.** Which “increase in total plasma ketone levels relative to capric acid (C10) alone” value does the source give for `CCCCCCCC(=O)O` [caprylic acid] here?
**A.** approximately three times more
